Patent publication US5087640A, “Novel cyanoguanidine derivatives” (Kanebo, Ltd., priority 1989, dated 1992)

What was measured:
[1] = system: taenia caecum smooth muscle; test: Smooth muscle relaxation (isolated guinea pig taenia caecum, organ bath); format: cell-based, guinia pigs; conditions: Cavia porcellus; cumulative addition; papaverine (10^-4 M) relaxation taken as 100%; MOPS-PSS pH 7.4, 37°±1° C.; read-out: ED50 (dose achieving 50% relaxation)
Description: Male guinia pigs weighing 300-600 g were stunned by blow on the head. Taeniae were isolated from the caecum and cut into length of about 1 cm to prepare a plurality of test specimens. These specimens were suspended in an organ bath filled with MOPS-PSS containing 129.7 mM of NaC1, 5.9 mM of KC1, 2.54 mM of CaC12, 1.19 mM of MgC12, 10.0 mM of 3-(N-morpholino)propanesulfonic acid (MOPS) and 11.1 mM of glucose, pH 7.4. The bathing solution was continuously bubbled with 100% O2 gas and maintained at 37°±1° C. Resting tension of each specimen was adjusted to 1 g and the spontaneous response was recorded isotonically. The specimens were allowed to stabilize before starting the test. Test compound was cumulatively added to the bathing solution. A relaxation induced with papaverine (10^-4 M) was taken as 100% relaxation. The relaxation effect of each test compound was evaluated in terms of a dose achieving 50% relaxation (ED50) determined by the linear regression analysis.

[2] = in vivo; conditions: rat, po, fasted male rats, deaths for 7 days, Weil's method
Description: Male rats weighing 70-210 g (3-5 rats/group) were fasted overnight and administered orally with the test compound suspended in 5% gum arabic solution. LD50 was calculated from the number of death for 7 days using the Weil's method.

[3] = system: K^+ channel; test: K^+ channel opening activity (^86 Rb^+ efflux from taenia caecum); format: cell-based, guinia pigs; conditions: n = 5; efflux just before addition taken as 100%; 37°±1° C.
Description: In order to ascertain that the smooth muscle relaxation activity is proportional to the K^+ channel opening activity, the compound of Example B-2 was tested for the K^+ channel opening activity in comparison with pinacidil.
^86 Rb^+ efflux was selected as the indication of K^+ channel opening effect because the K^+ channels were considered to be selective also for Rb^+. In a similar manner to the test 1, specimens of taenia caecum were suspended in a test tube filled with MOPS-PSS. The bathing solution was continuously bubbled with 100% O2 gas and maintained at 37°±1° C. After an equilibration period for about 45 minutes, the specimens were loaded with ^86 Rb^+. The efflux from the specimens was measured using a scintillation counter at every 2 minutes interval. The efflux data were expressed in terms of the rate coefficient (the ^86 Rb^+ efflux just before the test compounds were added were taken as 100%). The effective dose (ED15) Producing 15% increase of the rate coefficient by the test compounds were calculated from the linear regression analysis.

[4] = Hypotensive activity in anesthetized dogs (mean blood pressure); format: in vivo, Mongrel dogs; conditions: 30 μg/kg, i.v.; pentobarbital-anesthetized dogs
Description: Mongrel dogs of both sexes, weighing 11-22 kg, were anesthetized with sodium pentobarbital (30 mg/kg, i.v.). Mean blood pressure was measured with a carrier amplifier (Nihon Koden, AP-621G) via a pressure transducer (Nihon Koden, TP-200T) connected to the cannulated left femoral artery. Each test compound was dissolved in 0.9% saline containing 50% (v/v) ethanol and injected into the femoral vein in volumes of 0.1 ml/kg. The hypotensive effects of test compounds were evaluated in terms of the maximum decrease in the mean blood pressure (Δ mmHg) at a dose of 30 μg/kg.

Row | SMILES | EC50 [1] | LD50 at 168 h [2] | ED15 (dose producing 15% increase of the ^86 Rb^+ efflux rate coefficient) [3] | maximum decrease in the mean blood pressure, Δ mm Hg ± S.E. [4]
1 | CCC(C)(C)NC(=Nc1ccccc1)NC#N [Compd. A, N-cyano-N'-t-pentyl-N"-phenylguanidine, reference compound] | 1800 nM |  |  | 
2 | CC(NC(=C[N+](=O)[O-])Nc1ccccc1)C(C)(C)C (centres unmarked) [Compd. C, 2-nitro-1-anilino-1-(1,2,2-trimethylpropyl)aminoethene, reference compound] | 2700 nM |  |  | 
3 | CC(C)(C)NC(=Nc1cc(Cl)cc(Cl)c1)NC#N [Ex. B-1, N-t-butyl-N'-cyano-N"-(3,5-dichlorophenyl)-guanidine] | 87 nM | > 2000 mg/kg |  | 
4 | CCC(C)(C)N=C(NC#N)Nc1cc(Cl)cc(Cl)c1 [Ex. B-2, N-cyano-N'-(3,5-dichlorophenyl)-N"-t-pentylguanidine] | 26 nM | > 2000 mg/kg | 270 nM | -19.1 ± 4.1 mm Hg
5 | CCC(C)(CC)N=C(NC#N)Nc1cc(Cl)cc(Cl)c1 [Ex. B-5, N-cyano-N'-(3,5-dichlorophenyl)-N"-(1-ethyl-1-methylpropyl)guanidine] | 81 nM | > 2000 mg/kg |  | -26.1 ± 1.8 mm Hg
6 | CCC(CC)(CC)N=C(NC#N)Nc1cc(Cl)cc(Cl)c1 [Ex. B-7, N-cyano-N'-(3,5-dichlorophenyl)-N"-(1,1-diethylpropyl)guanidine] | 180 nM |  |  | 
7 | CC(C)(C)NC(=Nc1cc(F)cc(F)c1)NC#N [Ex. B-8, N-t-butyl-N'-cyano-N"-(3,5-difluorophenyl)guanidine] | 180 nM |  |  | 
8 | CC(C)(C)NC(=NC#N)Nc1cc(F)cc(Cl)c1 [Ex. B-11, N-t-butyl-N'-(3-chloro-5-fluorophenyl)-N"-cyanoguanidine] | 66 nM |  |  | -19.2 ± 4.4 mm Hg
9 | CCC(C)(C)N=C(NC#N)Nc1cc(F)cc(Br)c1 [Ex. B-13, N-(3-bromo-5-fluorophenyl)-N'-cyano-N"-t-pentylguanidine] | 25 nM | > 2000 mg/kg |  | -33.4 ± 0.9 mm Hg

Continued, in another order:

Row | EC50 [1] | SMILES | LD50 at 168 h [2] | ED15 (dose producing 15% increase of the ^86 Rb^+ efflux rate coefficient) [3] | maximum decrease in the mean blood pressure, Δ mm Hg ± S.E. [4]
10 | > 100000 nM | CC(C)(C)NC(=Nc1c(Cl)cccc1Cl)NC#N [Compd. B, N-t-butyl-N'-cyano-N"-(2,6-dichlorophenyl)guanidine, reference compound] |  |  | 
11 | 35 nM | CCCC(C)(C)N=C(NC#N)Nc1cc(Cl)cc(Cl)c1 [Ex. B-3, N-cyano-N'-(3,5-dichlorophenyl)-N"-(1,1-dimethylbutyl)guanidine] |  |  | -22.9 ± 3.2 mm Hg
12 | 58 nM | CC(C)C(C)(C)N=C(NC#N)Nc1cc(Cl)cc(Cl)c1 [Ex. B-4, N-cyano-N'-(3,5-dichlorophenyl)-N"-(1,1,2-trimethylpropyl)guanidine] |  |  | 
13 | 180 nM | CC(N=C(NC#N)Nc1cc(Cl)cc(Cl)c1)C(C)(C)C (centres unmarked) [Ex. B-6, N-cyano-N'-(3,5-dichlorophenyl)-N"-(1,2,2-trimethylpropyl)guanidine] |  |  | 
14 | 21 nM | CC(C)(C)NC(=Nc1cc(Br)cc(Br)c1)NC#N [Ex. B-9, N-t-butyl-N'-cyano-N"-(3,5-dibromophenyl)guanidine] |  |  | 
15 | 19 nM | CCC(C)(C)N=C(NC#N)Nc1cc(Br)cc(Br)c1 [Ex. B-10, N-cyano-N'-(3,5-dibromophenyl)-N"-t-pentylguanidine] |  |  | 
16 | 54 nM | CCC(C)(C)N=C(NC#N)Nc1cc(F)cc(Cl)c1 [Ex. B-12, N-(3-chloro-5-fluorophenyl)-N'-cyano-N"-t-pentylguanidine] |  |  | 
17 | 2000 nM | CC(N=C(NC#N)Nc1ccncc1)C(C)(C)C.O (centres unmarked) [Pinacidil, N-cyano-N'-(4-pyridyl)-N"-(1,2,2-trimethylpropyl)guanidine monohydrate, reference compound] |  | 24000 nM | -11.3 ± 1.1 mm Hg
